# Tested on: porcine cells (PAE's and PK1's)
# Experiment: Complement-mediated lysis of porcine cells (51CR release and LDH release assays)
# Type: cell-based
# Settings: effective sugar concentrations covered about 10 mM
# Procedure: The ability of human serum to cause the lysis of porcine cells was examined using both pig epithelial (PK1) and aortic endothelial (PAE's) cells, the isolation and culture of which is described in Example 2. Cell lysis was determined using either the ^51Chromium release assay as described by Cerottini and Brunner, Nature New Biol. 237:272, 1972 or the Cytotox LDH release assay according to the manufacturer's instructions (Promega, USA).
# A. ^51CR Release Assay • 1. Preparation of Cells: • a) Trypsinize a confluent flask of cells. On average, approximately 3×10^6 PAE's and approximately 3×10^7 PK1 cells are obtained per 10 ml flask. About 1×10^5 cells are required for each well in the 5CR Release Assay. • b) Wash cells […] in 10 ml RPMI (no FCS); spin 1200 rpm for 5 min. • c) Resuspend cells in 100 μl RPMI (with 10% heat-inactivated FCS; see below). • 2. […]
smiles,measurement,value
"O=C[C@H](O)[C@@H](O)[C@H](O)[C@H](O)CO[C@H]1O[C@H](CO)[C@H](O)[C@H](O)[C@H]1O [Melibiose, 6-O-α-D-galactopyranosyl-D-glucose]",protection of porcine cells from complement-induced lysis,protects the porcine cells from lysis

# — patent US7201899B2, “Materials and methods for management of hyperacute rejection in human xenotransplantation” (BresaGen Limited, priority 1994, dated 2007)
